We go through 8 molecules from US7468449B2, “Phenyl-furan compounds as vitamin D receptor modulators” (Eli Lilly and Company, priority 2003, dated 2008).

Series [1] concerns the target T1, RXR-VDR heterodimer (Homo sapiens, UniProt P11473).
T1 construct: Add the Gal-4-RXR-DEF and VP16-VDR-LBD; expressed in transfected cells; host or cells: SaOs-2 cells
T1 sequence (P11473 127-423 limits assumed): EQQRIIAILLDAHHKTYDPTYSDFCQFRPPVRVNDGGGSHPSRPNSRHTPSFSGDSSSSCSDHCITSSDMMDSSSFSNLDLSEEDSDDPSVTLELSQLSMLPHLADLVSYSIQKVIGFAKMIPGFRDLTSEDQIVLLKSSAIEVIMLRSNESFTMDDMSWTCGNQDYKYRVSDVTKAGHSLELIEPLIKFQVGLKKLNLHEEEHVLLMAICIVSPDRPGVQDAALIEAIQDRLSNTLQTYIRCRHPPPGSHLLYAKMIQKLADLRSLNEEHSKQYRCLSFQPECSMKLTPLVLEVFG
T1 sequence (P19793 201-462 partner limits assumed): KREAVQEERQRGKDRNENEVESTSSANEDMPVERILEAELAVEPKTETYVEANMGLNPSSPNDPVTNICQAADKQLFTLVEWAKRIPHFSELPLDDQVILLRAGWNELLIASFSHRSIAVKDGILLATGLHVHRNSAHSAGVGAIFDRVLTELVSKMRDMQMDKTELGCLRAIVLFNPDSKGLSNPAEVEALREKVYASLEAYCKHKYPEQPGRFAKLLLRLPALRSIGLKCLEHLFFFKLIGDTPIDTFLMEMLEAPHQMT
In words: RXR-VDR heterodimerization assay (SaOS-2 cells). Format: cell-based. Conditions: luciferase reporter, Table 1. An excerpt:
1. The RXR-VDR Heterodimer Assay:
This assay provides the VDR activity of a test compound.
(1) Materials and Method for RXR-VDR Heterodimerization Assay:
Transfection/Treatment Media: • D-MEM Low Glucose Without Phenol Red only
Flat well Plates: • Use well plate to plate cells • Use Deep well plate sterile to make up treatment media.
Luciferase Assay Reagent: • Use Steady-Glo Luciferase Reagent from Promega (Cat #E2550) Consists of: • a. E2533 Assay Substrate, lyopholized product and • b. E2543 Assay Buffer. • Thaw at room temperature • Store Day 1: Cell Plating: • Cell Harvesting • Aspirate media from culture flask, rinse cells with HBSS and aspirate. • Add trypsin and incubate. • When cells appear detached, resuspend cells in growth media. • Transfer into a new flask with fresh growth media for passaging the cells. • Plate well plates and two extra plates A. Cell Count • Mix the cell suspension using pipette • Use Hematocytometer to count the cells • Load cell suspension onto the hemocytometer chamber • Count cells.
Step 1: DNA and Media • Add plain DMEM media to tubes for mixing the DNA • Add the Reporter gene pFR-LUC • Add the Gal-4-RXR-DEF and VP16-VDR-LBD
Step 2: FuGENE and Media • Prepare plain DMEM media in a ubes for mixing PuGENE • Add FuGENE 6 Transection Reagent • Incubate
Step 3: FuGENE, DNA and Media Complex • Add FuGENE Media complex from step 2 to DNA Media complex from step1 • Incubate
Step 4: FuGENE, DNA and Media Complex to-well plate • Add FuGENE-DNA-Media complex from step 3 to each plate • Incubate. […] Day 4: Luciferase Assay • Read the plates after drug treatment • Remove part of media from all the wells and leave remainder • Add Steady-Glo Luciferase Reagent mixture/wells • Incubate • Count each well using a Luminescence counter, Top Count NXT by Packard Set a delay between plates to reduce the background. (2) Materials and Method for The Caco-2 Cell Assay: […]

In series [2] the target is T2, VDR (Homo sapiens, UniProt P11473).
T2 construct: the receptor expression vector pGal-4-VDR-LBD (10 ng); expressed in transfected cells; host or cells: Caco-2 cells
T2 sequence (P11473 127-423 limits assumed): T1 sequence (P11473 127-423 limits assumed)
In words: VDR CTF (Caco-2 cell co-transfection) assay. Format: cell-based. Particulars: Caco-2 cells, Gal-4-VDR-LBD co-transfection; Table 1. Here is the method: 2. The Caco-2 Cell Co-transfection Assay:
The Caco-2 cell assay is an indicator for the undesirable condition of hypercalcemia. This co-transfection assay is a surrogate assay for in vivo calcemic activity of VDR ligands. […] Preferred assay results are greater than 1000 nM.
Step 4: FuGENE, DNA and Media Complex to-well plate • Add FuGENE-DNA-Media complex from step 3 to each plate • Incubate. […] Day 4: Luciferase Assay • Read the plates after drug treatment • Remove part of media from all the wells and leave remainder • Add Steady-Glo Luciferase Reagent mixture/wells • Incubate • Count each well using a Luminescence counter, Top Count NXT by Packard Set a delay between plates to reduce the background. (2) Materials and Method for The Caco-2 Cell Assay:
Caco-2 cells, grown in phenol red free, DMEM (Invitrogen, Carlsbad, Calif.) containing 10% charcoal-stripped FCS (Hyclone, Logan, Utah), were transfected with Fugene 6 reagent (Roche Diagnostics, Indianapolis, Ind.). Cells (5000/well) were plated 18 h before transfection in a 96 well plate. The Cells were transfected with Gal-4-responsive reporter pFRLuc (150 ng, Stratagene, La Jolla Calif.) and the receptor expression vector pGal-4-VDR-LBD (10 ng), along with Fugene 6 reagent (0.2 μl/well). The DNA-Fugene complex was formed by incubating the mixture for 30 min at room temperature. The cells were transfected in triplicate for 5 h, and treated with various concentrations of VDR ligands (form 0.01 nM to 10,000 nM concentration range) 18 h post-transfection. The luciferase activity was quantified using Steady-Glo reagent kit (Promega, Madison, Wis.) as per manufacturer's specifications.

Series [3] has as its system rat osteocalcin promoter. In words: OCN (osteocalcin) promoter assay. Conditions: RG-15 (ROS 17/2.8) cells, 48 hr treatment, Table 1. Type of series: cell-based. Here is the method:
3. The OCN (osteocalcin) Promoter Assay
The OCN Promoter Assay is an indicator and marker for osteoporosis. […] Preferred assay results are less than 50 nM.
(3) Materials and Method for The OCN Promoter Assay:
The activation of osteocalcin by VDR ligands was evaluated in a rat osteoblast-like cell line RG-15 (ROS 17/2.8) stably expressing rat osteocalcin promoter fused with luciferase reporter gene. […] After 24 hr, cells (in DMEM/F-12 medium +2% FBS) were treated with various concentrations of compounds, dissolved in DMSO. The final DMSO concentration remained at 0.01% (v/v). After 48 hr treatment, the medium was removed, cells were lysed with 50 μl of lysis buffer (From Luciferase reporter assay system, Roche Diagnostics, Indianapolis, Ind.) and assayed for luciferase activity using the Luciferase Reporter Gene Assay kit from Boehringer Mannheim as per manufacturer's specifications.

Series [4] deals with KERtr cells. In words: Keratinocyte proliferation assay. Particulars: BrdU incorporation. Format: cell-based, Human. Here is the method:
5. The Keratinocyte Proliferation Assay
This Assay is indicative for the treatment of psoriasis.
(5) The Keratinocyte Proliferation Assay:
KERtr cells (Human skin keratinocyte transformed with a retrovirus vector, obtained from ATCC) were plated in 96-well flat-bottomed plates (3000 cells/well) in 100 μl keratinocyte serum free medium supplemented with bovine pituitary extract in the absence of EGF (Life Technologies, Rockville, Md.) and incubated at 37° C. for two days. The cells were treated with various concentrations of VDR ligands (ten-fold serial dilution from 10,000 nM to 0.1 nM in triplicate), dissolved in 100 μl keratinocyte serum free medium supplemented with bovine pituitary extract in the absence of EGF and incubated at 37° C. for 72 hr. […] Potency values (IC50) values were determined as the concentration (nM) of compound that elicited a half-maximal response.

Series [5] deals with IL-10. In words: IL-10 induction assay in PBMCs. Conditions: TPA/PHA stimulated human PBMCs. Type of series: cell-based. An excerpt: 6. The IL-10 induction Assay
This is an in vitro efficacy assay for psoriasis, abscess and adhesion. Psoriasis involves both keratinocytes and immune cells. IL-10 is a unique cytokine because it is anti-inflammatory and immunosuppressive. This assay tells us whether a VDRM is able to function as an agonist in PBMCs ([…]) or not.
(6) Materials and Method for human IL-10 Induction Assay: […]

The nature of series [6]: Mouse hypercalcemia assay. Conditions: six day hypercalcemia test, oral gavage, serum ionized calcium; Table 1.
Protocol: The Mouse Hypercalcemia Assay
(§1) The Mouse Hypercalcemia Assay is a six day hypercalcemia test for toxicity and selectivity. Acceptable test results are levels greater than 300 μg/kg/day. Preferred assay results are levels greater than 1000 μg/kg/day.
(§2) (4) Materials and Method for The Mouse Hypercalcemia Assay:
(§3) Weanling, virus-antibody-free, five to six weeks old female DBF mice (Harlan, Indianapolis, Ind.) are used for all the studies. Animals are allowed to acclimate to local vivarium conditions for 2 days. […] The animals then are divided into groups with 4-5 mice per group. Different doses of test compounds prepared in 10% Ethanol and 90% sesame oil are administered to mice orally via gavage for 6 days. 1α-25(OH)2D3 0.5 μg/kg/d was also given to one group of mice as the positive control. […] Raw data of group differences is assessed by analysis of variance (ANOVA) using Fisher's protected least significant difference (PLSD) where the significance level was P<0.05.
The conditions of series [7]: in vivo, po.
Protocol: The Mouse Hypercalcemia Assay
as §1, §2, §3
[8] abbreviates: 72 hr, Table 2, read-out: Kera. Prolif. IC50.

Values joined by “and” are separate entries in the source; they are usually repeats but may differ in a detail not shown here. Identical values can stand only once. Like-named read-outs stand apart in the source and are kept apart here.

`CCc1cc(C(CC)(CC)c2ccc(C(=O)N(C)OC)o2)ccc1OCC(O)C(C)(C)C` (single isomer, unassigned; enantiomer 1) [Ex. 13, 3′-[4-(2-hydroxy-3,3-dimethyl-butoxy)-3-ethylphenyl]-3′-[5-N-methoxy-N-methylamino-carbonyl-2-furanyl]pentane enantiomer 1]: the results for the EC50 in series [1], in series [2] and in series [3] were 0.018 µM, 572 nM and 0.02 µM, respectively. In addition, the figures for the IC50 in series [4] (setting [8]) and in series [5] (Table 2) were 0.018 µM and 0.0046 µM, respectively. Further, the “Mouse Hypercal” value in series [6] was more than 3000 µg/kg/day.

As for `CCc1cc(C(CC)(CC)c2ccc(C(=O)N(C)C)o2)ccc1OCC(O)C(C)(C)C` (single isomer, unassigned; enantiomer 2) [Ex. 11, 3′-[4-(2-hydroxy-3,3-dimethyl-butoxy)-3-ethylphenyl]-3′-[5-dimethylaminocarbonyl-2-furanyl]pentane enantiomer 2], the EC50 in series [1] is 0.0176 µM; in series [2], 572 nM; in series [3], 0.02 µM. In series [4] (setting [8]), the IC50 came to 0.018 µM. Further, the “Mouse Hypercal” value in series [6] was more than 3000 µg/kg/day.

On to `C=C1/C(=C\C=C2/CCC[C@]3(C)[C@@H]([C@H](C)CCCC(C)(C)O)CC[C@@H]23)C[C@@H](O)C[C@@H]1O` [AA, 1α,25-dihydroxyvitamin D3], for which the “Mouse Hypercal” value in series [7] was found to be 0.06 µg/kg/day.

For the molecule `CCC(CC)(c1ccc(OCC(=O)C(C)(C)C)c(C)c1)c1ccc(C(=O)N(C)C)o1` [Ex. 1, 3′-[4-(2-oxo-3,3-dimethylbutoxy)-3-methylphenyl]-3′-[5-dimethylaminocarbonyl-2-furanyl]pentane], the EC50 in series [1] is 0.0033 µM and 0.0006 µM; in series [2], 191 nM; in series [3], 0.003 µM; in series [3] (Rattus norvegicus, 48 h), 0.005 µM. Moreover, the IC50 in series [4] (Homo sapiens, Keratinocyte, 72 h, Table 2, read-out: Kera. Prolif. IC50) was determined as 0.015 µM. Besides, the “Mouse Hypercal” value in series [6] is more than 1500 µg/kg/day.

On to `CCNC(=O)c1ccc(C(CC)(CC)c2ccc(OCC(=O)C(C)(C)C)c(C)c2)o1` [Ex. 6, 3′-[4-(2-oxo-3,3-dimethyl-butoxy)-3-methylphenyl]-3′-[5-ethylaminocarbonyl-2-furanyl]-pentane], for which the EC50 in series [1] is 0.32 µM; in series [2], 315 nM; in series [3], more than 1 µM. In addition, the 50% inhibitory concentration (IC50) in series [4] (setting [8]) is 0.112 µM.

With `CCC(CC)(c1ccc(OCC(=O)C(C)(C)C)c(C)c1)c1oc(C(=O)N(C)C)cc1C` [Ex. 8, 3′-[4-(2-oxo-3,3-dimethyl-butoxy)-3-methylphenyl]-3′-[5-dimethylaminocarbonyl-3-methyl-2-furanyl]-pentane], the half-maximal effective concentration (EC50) in series [1] turned out to be 0.156 µM; in series [2], 758 nM; in series [3], 0.125 µM. In series [4] (setting [8]), the IC50 is more than 1 µM.

As to `CCN(C)C(=O)c1ccc(C(CC)(CC)c2ccc(OCC(O)C(C)(C)C)c(C)c2)o1` (centres unmarked) [Ex. 9, 3′-[4-(2-hydroxy-3,3-dimethyl-butoxy)-3-methylphenyl]-3′-[5-N-ethyl-N-methylamino-carbonyl-2-furanyl]pentane], the half-maximal effective concentration (EC50) in series [1] was 0.016 µM; in series [2], 616 nM; in series [3], 0.03 µM. Moreover, the IC50 in series [4] (setting [8]) is 0.028 µM.

As to `C=C1/C(=C\C=C2/CCC[C@]3(C)[C@@H]([C@H](C)/C=C/[C@@H](O)C4CC4)CC[C@@H]23)C[C@@H](O)C[C@@H]1O` [FF, calcipotriol, reference compound], the IC50 in series [4] (Homo sapiens, Keratinocyte, 72 h, Table 4 comparison compounds, read-out: Kera. Prolif. IC50) stood at 0.103 µM; in series [5] (PBMC, Table 4 comparison compounds) it was 0.0005 µM.
